Common to all, as to assay: NCI tumour cell line growth inhibition, 48 h
The subject of experiment [1] is M14 melanoma.
In experiment [2] the test system is UACC-62 melanoma.
Experiment [3] concerns MDA-MB-231 breast.
Experiment [4] concerns SN12C renal.
Experiment [5] relates to RPMI-8226 leukemia.
The test system of experiment [6] is HT29 colon.
For experiment [7], the system named is MCF7 breast.
Experiment [8] relates to HS 578T breast.
Experiment [9] concerns SK-OV-3 ovarian.
The test system of experiment [10] is SNB-19 CNS.

SMILES strings stand for the structures.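 Where inhibition never reached the appropriate level, the endpoint shown equals the highest concentration tested. Otherwise, values were interpolated linearly from a five-concentration, 48-hour dose response in 96-well plates. GI50 is the concentration that inhibits growth by half. TGI is the concentration that stops growth completely.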

With `Cc1ccc2c(O)c(O)cc(NC(C)CCCN)c2n1` (configuration not stated), the GI50 is 33.6 µM in [1]; 27.3 µM in experiment [2]; 7.22 µM in experiment [3]; 3.89 µM in experiment [4]; 8.89 µM in experiment [5]; 7.04 µM in experiment [6]. The figures for the GI50 in experiment [7], in experiment [8] and in [9] were 2.65 µM, 13.9 µM and over 78.6 µM, respectively. In addition, the TGI in experiment [1] was over 88.1 µM; in [2], over 66.8 µM; in [3], 74 µM; in experiment [4], 24.8 µM; in experiment [5], over 53.2 µM; in experiment [6], over 72.4 µM. Further, the values for the TGI in [7], in experiment [8] and in experiment [9] were 9.82 µM, 49.4 µM and over 100 µM, respectively.
`CCOC(=O)/C=C/C(C(=O)/C=C/c1ccc(O)c(OC)c1)=C(O)\C=C\c1ccc(O)c(OC)c1`: the GI50 was 2.2 µM in experiment [1]; 1.85 µM in experiment [2]; 2 µM in experiment [3]; 1.88 µM in experiment [4]; 2.6 µM in [5]; 1.83 µM in experiment [6]. The GI50 in [7] was 7.52 µM; in [10], 5.14 µM; in experiment [8], 4.25 µM; in experiment [9] it was 8.07 µM. For the same compound, the TGI in experiment [1] is 5.15 µM; in experiment [2], 3.76 µM; in experiment [3], 8.55 µM; in experiment [4] it was 8.16 µM; in [5], 7.23 µM; in experiment [6], 6.6 µM. Moreover, the TGI in [7] was found to be 67.5 µM; in experiment [10], 27.2 µM; in [8], 41.7 µM; in experiment [9], 25.4 µM.
For the compound `CCN1c2ccccc2C(Cl)(c2ccc(N(C)C)cc2)c2ccccc21`, the GI50 in experiment [1] was 5.97 µM; in experiment [2], 11.6 µM; in experiment [3] it was 13.1 µM; in [4], 4.88 µM; in experiment [5] it was 1.07 µM; in experiment [6], 2.88 µM. The GI50 is 10.3 µM in experiment [7], 5.44 µM in experiment [10], 4.89 µM in experiment [8] and 4.97 µM in [9]. In addition, the TGI amounted to 20.2 µM in [1]; 42.1 µM in experiment [2]; 37.5 µM in experiment [3]; 19.2 µM in [4]; 4.04 µM in experiment [5]; 12.4 µM in [6]. For the same compound, the TGI in experiment [7] stood at 30.5 µM; in [10], 19.1 µM; in experiment [8], 27.3 µM; in experiment [9], 18.2 µM.
Consider `C=C1C(=O)O[C@H]2[C@H]1CC/C(COC(=O)NCCc1c[nH]c3ccc(OC)cc13)=C\CC[C@@]1(C)O[C@@H]21`, for which the GI50 in [1] is 1.62 µM; in [2], 1.72 µM; in experiment [3], 1.97 µM; in [4] it was 1.81 µM; in [5], 1.44 µM; in [6], 1.58 µM. In addition, the figures for the GI50 in [10], in experiment [8] and in experiment [9] were 10 µM, 6.42 µM and 14.1 µM, respectively. Moreover, the TGI in experiment [1] came out at 3.51 µM; in experiment [2], 3.77 µM; in experiment [3], 4.44 µM; in [4] it was 3.8 µM; in [5] it was 4.74 µM; in experiment [6], 3.09 µM. The TGI in [10] was found to be 21.9 µM; in experiment [8], 36.9 µM; in experiment [9] it was 27.2 µM.
With `CN1CCN(Cc2ccc(NC(=O)c3ccc(C#Cc4c(N)ncc5ccc(F)cc45)cc3)cc2C(F)(F)F)CC1`, the GI50 in experiment [1] is 0.919 µM; in [2] it was 1 µM; in experiment [3], 1.14 µM; in experiment [4], 0.913 µM; in experiment [5] it was 1.08 µM; in experiment [6] it was 0.876 µM. For the same compound, the GI50 in experiment [7] was 0.837 µM; in experiment [10], 1.09 µM; in [8], 1.05 µM; in experiment [9], 2.2 µM. The TGI came to 1.71 µM in [1]; 1.84 µM in [2]; 2.04 µM in [3]; 1.78 µM in [4]; 2.48 µM in [5]; 1.86 µM in experiment [6]. For the same compound, the TGI came to 1.59 µM in experiment [7], 1.91 µM in [10], 3.65 µM in experiment [8] and 7.63 µM in [9].
Turning to `O=Nc1ccc2ccccc2c1O`, the GI50 in [1] was 5.07 µM; in [2], 2.23 µM; in [3], 10 µM; in experiment [4], 1.9 µM; in experiment [5], 5.69 µM; in [6], 3.46 µM. Besides, the GI50 in [7] was 3.17 µM; in [10], 15 µM; in experiment [8], 1.56 µM; in experiment [9] it was 19.9 µM. Besides, the TGI in experiment [1] was determined as 16.5 µM; in experiment [2], 5.89 µM; in [3], 25.1 µM; in experiment [4], 5.26 µM; in experiment [5], 31.1 µM; in experiment [6], 13.4 µM. For the same compound, the TGI amounted to 12.5 µM in experiment [7], 28.4 µM in experiment [10], 5.07 µM in experiment [8] and 45.5 µM in experiment [9].
`COc1ccc2nc3cc(Cl)ccc3c(NCCCNCCC(C)O)c2c1` (configuration not stated): the GI50 was 0.59 µM in experiment [1]; 0.203 µM in experiment [3]; 0.575 µM in experiment [5]; 0.172 µM in [6]; 0.351 µM in [7]; 0.423 µM in experiment [10]. Besides, the figures for the GI50 in experiment [8] and in experiment [9] were 1.05 µM and 0.465 µM, respectively. The TGI stood at 2.02 µM in [1]; 1.37 µM in experiment [3]; 3.09 µM in experiment [5]; 1.25 µM in [6]; 1.72 µM in experiment [7]; 2.69 µM in experiment [10]. Further, the TGI is 3.62 µM in [8] and 2.62 µM in [9].

Values taken from PubChem BioAssay (NCI).
